The record followed here is patent US20220289728A1, “MODULATORS OF TREX1” (Constellation Pharmaceuticals, Inc., priority 2019, published 2022).

One assay relates to HCT116 dual cells. The assay is described as follows: HCT116 Cell Assay (Lucia luciferase reporter of Type I interferon induction). In kind it is cell-based, human. The note with it: pBR322/BstNI DNA transfection, Lucia luciferase at 48 h, relative to 10 uM compound 39. From the text:
HCT116 dual cells (Invivogen, San Diego, Calif., USA) are derived from the human HCT116 colorectal carcinoma cell line. Cells have been selected for the stable integration of SEAP and Luciferase reporter genes, which expression is under the control of 5 tandem response elements for NF-KB/AP1 and STAT1/STAT2, respectively. The cell line was used to monitor Type I interferon induction and subsequent signaling by measuring the activity of the Lucia luciferase secreted in the culture medium.
HCT116 cells were plated in 96-well plate(s) at 40,000 cells/well in 100 uL DMEM supplemented with 10% FBS and 25 mM Hepes (pH 7.2-7.5). After overnight settling, cells were treated with TREX1i for 4 h (maximum DMSO fraction was 0.1%) before 1.25 ug/mL pBR322/BstNI restriction digest (New England Biolabs, Ipswich, Mass., USA) was transfected with Lipofectamine LTX (ThermoFisher, Grand Island, N.Y., USA), according to product manual recommendations. Briefly, Lipofectamine LTX (0.4 uL/well) was diluted in OptiMEM (5 uL/well). pBR322/BstNI (100 ng/well) was diluted in OptiMEM (5 uL/well) before Plus reagent (0.1 uL/100 ng DNA) was added. After 5 min incubation at room temperature, the DNA mixture was mixed dropwise with the diluted Lipofectamine LTX. After an additional 10 min incubation, the transfection mix (10 uL/well) was added to the cells. Cells were maintained at 37° C. for 48 h before monitoring the Lucia Luciferase activity from the cell culture medium. EC50 values were calculated by comparing the measured luminescence relative to 10 uM compound 39 (100% inhibition) and no inhibitor (0% inhibition) controls using non-linear least-squares four parameter fits in either Genedata Screener or GraphPad Prism (GraphPad Software, Inc.).

Another assay has as its target T1, full length human TREX1 (Homo sapiens, UniProt Q9NSU2).
T1 construct: N-terminally His-Tev tagged full length human TREX1; His-TEV (His tag with TEV site) (N); made in house; host or cells: E. coli
T1 sequence (Q9NSU2 1-314): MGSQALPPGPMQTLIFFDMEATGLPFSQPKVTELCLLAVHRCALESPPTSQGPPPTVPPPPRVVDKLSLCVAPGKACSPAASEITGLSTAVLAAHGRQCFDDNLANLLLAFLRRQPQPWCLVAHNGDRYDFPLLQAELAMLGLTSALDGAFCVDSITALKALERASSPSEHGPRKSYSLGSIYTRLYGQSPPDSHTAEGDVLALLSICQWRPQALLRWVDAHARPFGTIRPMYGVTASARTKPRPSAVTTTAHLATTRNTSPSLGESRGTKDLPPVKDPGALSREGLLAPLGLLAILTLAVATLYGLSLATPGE
The assay is described as follows: TREX1 Biochemical Assay (fluorescence, dsDNA substrate degradation). Particulars: 150 pM TREX1, 60 nM dsDNA substrate, 25 minutes at room temperature. The procedure:
Degradation of the dsDNA liberates free fluorophore to produce a fluorescent signal. Specifically, 7.5 μL of N-terminally His-Tev tagged full length human TREX1 (expressed in E. coli and purified in house) in reaction buffer (50 mM Tris (pH 7.4), 150 mM NaCl, 2 mM DTT, 0.1 mg/mL BSA, 0.01% (v/v) Tween-20 and 100 mM MgCl2) was added to a 384-well Black ProxiPlate Plus (Perkin Elmer) which already contained compound (150 nL) at varying concentrations as a 10 point dose-response in DMSO. To this was added 7.5 μL of dsDNA substrate (Strand A: 5′ TEX615/GCT AGG CAG 3′; Strand B: 5′ CTG CCT AGC/IAbRQSp (Integrated DNA Technologies)) in reaction buffer. Final concentrations were 150 pM TREX1, 60 nM dsDNA substrate in reaction buffer with 1.0% DMSO (v/v). After 25 minutes at room temperature, reactions were quenched by the addition of 5 μL of stop buffer (same as reaction buffer plus 200 mM EDTA). Final concentrations in the quenched reaction were 112.5 pM TREX1, 45 nM DNA and 50 mM EDTA in a volume of 20 μL. After a 5-minute incubation at room temperature, plates were read in a laser sourced Envision (Perkin-Elmer), measuring fluorescence at 615 nm following excitation w/570 nm light. IC50 values were calculated by comparing the measured fluorescence at 615 nm ratio relative to control wells pre-quenched w/stop buffer (100% inhibition) and no inhibitor (0% inhibition) controls as using non-linear least square four parameter fits and either Genedata or GraphPad Prism (GraphPad Software, Inc.).

Assay [1] addresses T2, human TREX2 (residues M44-A279) (Homo sapiens, UniProt Q9BQ50).
T2 construct: human TREX2 (residues M44-A279, expressed in E. coli); His-TEV (His tag with TEV site) (N); made in house; host or cells: E. coli
T2 sequence (Q9BQ50 44-279 isoform Q9BQ50-1): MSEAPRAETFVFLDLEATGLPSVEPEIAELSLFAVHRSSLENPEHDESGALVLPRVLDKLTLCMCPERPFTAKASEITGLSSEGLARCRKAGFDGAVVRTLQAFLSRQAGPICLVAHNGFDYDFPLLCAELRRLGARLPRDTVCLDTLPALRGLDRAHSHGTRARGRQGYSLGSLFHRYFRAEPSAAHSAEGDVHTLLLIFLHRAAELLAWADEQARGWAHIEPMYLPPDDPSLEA
The assay can be described thus: TREX2 Biochemical Assay (fluorescence, dsDNA substrate degradation). Particulars: 2.5 nM TREX2, 60 nM dsDNA substrate, 25 minutes at room temperature. The procedure: Degradation of the dsDNA liberates free fluorophore to produce a fluorescent signal. Specifically, 7.5 μL of N-terminally His-Tev tagged human TREX2 (residues M44-A279, expressed in E. coli and purified in house) in reaction buffer (50 mM Tris (pH 7.4), 150 mM NaCl, 2 mM DTT, 0.1 mg/mL BSA, 0.01% (v/v) Tween-20 and 100 mM MgCl2) was added to a 384-well Black ProxiPlate Plus (Perkin Elmer) which already contained compound (150 nL) at varying concentrations as a 10 point dose-response in DMSO. To this was added 7.5 μL of dsDNA substrate (Strand A: 5′ TEX615/GCT AGG CAG 3′; Strand B: 5′ CTG CCT AGC/IAbRQSp (IDT)) in reaction buffer. Final concentrations were 2.5 nM TREX2, 60 nM dsDNA substrate in reaction buffer with 1.0% DMSO (v/v). After 25 minutes at room temperature, reactions were quenched by the addition of 5 μL of stop buffer (same as reaction buffer plus 200 mM EDTA). Final concentrations in the quenched reaction mixture were […] TREX2, 45 nM DNA and 50 mM EDTA in a volume of 20 μL. After a 5-minute incubation at room temperature, plates were read in a laser sourced Envision (Perkin-Elmer), measuring fluorescence at 615 nm following excitation w/570 nm light. IC50 values were calculated by comparing the measured fluorescence at 615 nm ratio relative to control wells pre-quenched w/stop buffer (100% inhibition) and no inhibitor (0% inhibition) controls as using non-linear least square four parameter fits and either Genedata or GraphPad Prism (GraphPad Software, Inc.).

Setting [2] is: Homo sapiens, HCT-116, 4 h pre-treatment.

Broadly, the EC50 is the concentration needed to bring the measured effect to its halfway point. For orientation: IC50 means the concentration needed to halve the response being measured. A higher IC50 goes with weaker potency. Regarding “2-(dibenzylamino)-5-ethoxy-N-(isoxazol-4-yl)-1-methyl-6-oxo-1,6-dihydropyrimidine-4-carboxamide [Example 1]”, the EC50 in the assay on HCT116 dual cells (4 h pre-treatment) lay within 1 to 10 µM. The IC50 at full length human TREX1 is under 0.1 µM; in assay [1], under 1 µM.

Take `CN(c1nc(C(=O)Nc2cnoc2)c(O)c(=O)n1C)C(c1ccccc1)c1ccccc1Cl` (single isomer, unassigned) [Example 39]: in the assay with HCT116 dual cells (setting [2]), the EC50 was under 1 µM. The IC50 was under 0.1 µM at full length human TREX1 and under 1 µM in assay [1].

With `CN(c1nc(C(=O)Nc2cnoc2)c(O)c(=O)n1C)C(c1ccccc1)c1ccccc1Cl` (single isomer, unassigned) [Example 40], the EC50 with HCT116 dual cells (4 h pre-treatment) was under 1 µM. Besides, the IC50 at full length human TREX1 was under 0.1 µM; in assay [1], under 1 µM.

On to `CN(c1nc(C(=O)Nc2cnoc2)c(O)c(=O)n1C)C(c1ccccc1)c1ccccn1` (single isomer, unassigned) [Example 41], for which the EC50 with HCT116 dual cells (setting [2]) is under 1 µM. In addition, the IC50 was under 0.1 µM at full length human TREX1 and under 1 µM in assay [1].

For the compound `CN(c1nc(C(=O)Nc2cnoc2)c(O)c(=O)n1C)C(c1ccccc1)c1ccccn1` (single isomer, unassigned) [Example 42], in the assay with HCT116 dual cells (4 h pre-treatment), the EC50 was 1 to 10 µM. For the same compound, the results for the IC50 (at full length human TREX1; in assay [1]) were under 0.1 µM and 1 to 10 µM, respectively.

As to `Cc1ccc(C(c2ccccc2)N(C)c2nc(C(=O)Nc3cnoc3)c(O)c(=O)n2C)cn1` (single isomer, unassigned) [Example 43], in the assay on HCT116 dual cells (setting [2]), the EC50 was in the range of 1 to 10 µM. The IC50 at full length human TREX1 was under 0.1 µM; in assay [1], under 1 µM.

Regarding `Cc1ccc(C(c2ccccc2)N(C)c2nc(C(=O)Nc3cnoc3)c(O)c(=O)n2C)cn1` (single isomer, unassigned) [Example 44], the EC50 in the assay with HCT116 dual cells (4 h pre-treatment) is under 1 µM. The IC50 against full length human TREX1 was under 0.1 µM; in assay [1], under 1 µM.

As to `CN(c1nc(C(=O)Nc2cnoc2)c(O)c(=O)n1C)C(c1ccccc1)C1CCOCC1` (single isomer, unassigned) [Example 45], in the assay on HCT116 dual cells (setting [2]), the EC50 fell in the range of 1 to 10 µM. The IC50 on full length human TREX1 is under 0.1 µM; in assay [1], 1 to 10 µM.

For the compound `CN(c1nc(C(=O)Nc2cnoc2)c(O)c(=O)n1C)C(c1ccccc1)C1CCOCC1` (single isomer, unassigned) [Example 46], the EC50 in the assay on HCT116 dual cells (4 h pre-treatment) lay within 1 to 10 µM. Moreover, the IC50 at full length human TREX1 was under 0.1 µM; in assay [1], 1 to 10 µM.

In the case of `Cc1ncc(C(c2ccccc2Cl)N(C)c2nc(C(=O)Nc3cnoc3)c(O)c(=O)n2C)cn1` (single isomer, unassigned) [Example 82], the IC50 was over 10 µM at full length human TREX1 and over 100 µM in assay [1].

Regarding `CN(CCc1ccccc1)c1nc(C(=O)Nc2cnoc2)c(O)c(=O)n1C` [Example 3], the IC50 against full length human TREX1 is 0.1 to 1 µM; in assay [1], 10 to 100 µM.

For `CN(Cc1ccc(C(F)(F)F)cc1)c1nc(C(=O)Nc2cnoc2)c(O)c(=O)n1C` [Example 12], the values for the IC50 (against full length human TREX1; in assay [1]) were 0.1 to 1 µM and 10 to 100 µM, respectively.

With `CN(Cc1ccccc1-c1cccc(Cl)c1)c1nc(C(=O)Nc2cnoc2)c(O)c(=O)n1C` [Example 17], the IC50 is under 0.1 µM against full length human TREX1 and 1 to 10 µM in assay [1].

For the compound `CN(Cc1cccnc1-c1cccc(Cl)c1)c1nc(C(=O)Nc2cnoc2)c(O)c(=O)n1C` [Example 20], the IC50 against full length human TREX1 lay in the range of 0.1 to 1 µM; in assay [1], 1 to 10 µM.

Turning to `CN(Cc1cnn(C)c1)c1nc(C(=O)Nc2cnoc2)c(O)c(=O)n1C` [Example 33], the IC50 at full length human TREX1 lay within 0.1 to 1 µM; in assay [1] it was 10 to 100 µM.

For `CN(Cc1cncnc1)c1nc(C(=O)Nc2cnoc2)c(O)c(=O)n1C` [Example 34], the IC50 lay in the range of 0.1 to 1 µM against full length human TREX1 and 10 to 100 µM in assay [1].

With `CN(Cc1ccncc1)c1nc(C(=O)Nc2cnoc2)c(O)c(=O)n1C` [Example 37], the IC50 was in the range of 0.1 to 1 µM against full length human TREX1 and 10 to 100 µM in assay [1].

With `Cc1csc(CN(C)c2nc(C(=O)Nc3cnoc3)c(O)c(=O)n2C)n1` [Example 38], the IC50 against full length human TREX1 is 0.1 to 1 µM; in assay [1], 1 to 10 µM.

For `CN1CCC(C(c2ccccc2)N(C)c2nc(C(=O)Nc3cnoc3)c(O)c(=O)n2C)CC1` (stereo not drawn) [Example 49], the IC50 against full length human TREX1 fell in the range of 0.1 to 1 µM; in assay [1], 10 to 100 µM.

Consider `CN(c1nc(C(=O)Nc2cnoc2)c(O)c(=O)n1C)C1CCCCC1` [Example 72], for which the IC50 against full length human TREX1 was in the range of 0.1 to 1 µM; in assay [1], 1 to 10 µM.

Turning to `CC(=O)N1CCC(N(C)c2nc(C(=O)Nc3cnoc3)c(O)c(=O)n2C)CC1` [Example 73], the IC50 is 0.1 to 1 µM against full length human TREX1 and 10 to 100 µM in assay [1].

Regarding `CN(C)C(=O)c1ccccc1CN(C)c1nc(C(=O)Nc2cnoc2)c(O)c(=O)n1C` [Example 75], the IC50 on full length human TREX1 is 0.1 to 1 µM; in assay [1] it was 10 to 100 µM.

`CN(C)C(=O)c1ccc(CN(C)c2nc(C(=O)Nc3cnoc3)c(O)c(=O)n2C)cc1` [Example 76]: the IC50 against full length human TREX1 lay within 0.1 to 1 µM; in assay [1], 10 to 100 µM.

On to `CN(C)C(=O)c1cccc(CN(C)c2nc(C(=O)Nc3cnoc3)c(O)c(=O)n2C)c1` [Example 77], for which the IC50 at full length human TREX1 was in the range of 0.1 to 1 µM; in assay [1] it was 10 to 100 µM.
